Test results as given in patent US20110027846A1, “CONTROL OF BACTERIA IN FERMENTATION PROCESSES” (priority 2007, published 2011).

Assays:
yeast = yeast level on SDA medium after biocide contact (Comparative Example 3); type: cell-based; conditions: 2 hours after contact, biocide concentration 50 ppm
Source text: (§1) A comparison is done to show the effect of four different biocides on yeast level and bacteria level in various media and at various points relative to introduction of the biocide. SDA medium is synthetic defined agar, and PCA medium is plate count agar. Dow Antimicrobial™ 7287 is a composition containing 20 percent 2,2-dibromo-3-nitrilopropionamide (DBNPA), sold by The Dow Chemical Company.

bacteria = bacteria level on PCA medium after biocide contact (Comparative Example 3); type: cell-based; conditions: PCT medium, 2 hours after contact; biocide concentration 50 ppm
Source text: as §1

## Diethyl Carbamate
yeast
  Yeast level: <1.0 × 10^4 cfu/ml
bacteria
  Bacteria level: 2.6 × 10^7 cfu/ml
